Values quoted from earlier work, collected in patent publication US20200319191A1, “MOLECULAR PROFILING FOR CANCER” (Caris MPI, Inc., priority 2015, published 2020).
Read-outs that look alike come from different tables or passages of the source. One block for each molecule: values may come before it.

Conditions: for Evid. Level, ER Positive (IHC) / Bene. Level, ER Positive (IHC): Hormonal Agents; for sensitivity by EGFRvIII expression: preliminary studies; for response by TOPOI expression: expression of TOPOI

Evid. Level, ER Positive (IHC) (ER Positive (IHC)=F): 1
Bene. Level, ER Positive (IHC) (ER Positive (IHC)=T): 1
Evid. Level, ER Positive (IHC) (ER Positive (IHC)=T): 1
SMILES: C[C@]12CC[C@@H]3c4ccc(O)cc4C[C@@H](CCCCCCCCC[S+]([O-])CCCC(F)(F)C(F)(F)F)[C@H]3[C@@H]1CC[C@@H]2O (stereo partly shown) [fulvestrant]

SMILES: COc1cc2ncnc(Nc3ccc(F)c(Cl)c3)c2cc1OCCCN1CCOCC1 [gefitinib]
sensitivity by EGFRvIII expression: higher sensitivity to erlotinib and gefitinib, as well as to pan-Her inhibitors including

SMILES: Nc1ccn([C@@H]2O[C@H](CO)[C@@H](O)C2(F)F)c(=O)n1 [gemcitabine]
resistance by RRM1 level (high RRM1 level): activity. High RRM1 level is associated with resistance to gemcitabine.

SMILES: CCc1c2c(nc3ccc(OC(=O)N4CCC(N5CCCCC5)CC4)cc13)-c1cc3c(c(=O)n1C2)COC(=O)[C@]3(O)CC [irinotecan]
response by TOPOI expression: DNA molecule. Expression of TOPOI has been associated with response to TOPOI

Evid. Level, ER Positive (IHC) (ER Positive (IHC)=F): 1
Bene. Level, ER Positive (IHC) (ER Positive (IHC)=T): 1
Evid. Level, ER Positive (IHC) (ER Positive (IHC)=T): 1
SMILES: N#Cc1ccc(C(c2ccc(C#N)cc2)n2cncn2)cc1 [letrozole]

Evid. Level, ER Positive (IHC) (ER Positive (IHC)=F): 1
Bene. Level, ER Positive (IHC) (ER Positive (IHC)=T): 1
Evid. Level, ER Positive (IHC) (ER Positive (IHC)=T): 1
SMILES: CC(=O)O[C@]1(C(C)=O)CC[C@H]2[C@@H]3C=C(C)C4=CC(=O)CC[C@]4(C)[C@H]3CC[C@@]21C [megestrol acetate]

SMILES: CCOc1cc2ncc(C#N)c(Nc3ccc(OCc4ccccn4)c(Cl)c3)c2cc1NC(=O)/C=C/CN(C)C [neratinib]
sensitivity by EGFRvIII expression: higher sensitivity to erlotinib and gefitinib, as well as to pan-Her inhibitors including

SMILES: O=C(O)C(=O)O.[NH-][C@@H]1CCCC[C@H]1[NH-].[Pt+2] [oxaliplatin]
disease control rate by APC status (APC wild type patients, metastatic setting, colorectal): event in colorectal tumorigenesis. APC wild type patients have shown better disease

PGP Positive (IHC) Bene. Level (IHC positive: TLE3 F, TUBB3 F, PGP F): 1
PGP Positive (IHC) Bene. Level (IHC positive: TLE3 F, TUBB3 F, PGP T): 2
PGP Positive (IHC) Bene. Level (IHC positive: TLE3 F, TUBB3 No Data, PGP F): 1
PGP Positive (IHC) Bene. Level (IHC positive: TLE3 F, TUBB3 No Data, PGP T): 3
PGP Positive (IHC) Bene. Level (IHC positive: TLE3 F, TUBB3 T, PGP F): 1
PGP Positive (IHC) Bene. Level (IHC positive: TLE3 F, TUBB3 T, PGP T): 3
PGP Positive (IHC) Bene. Level (IHC positive: TLE3 No Data, TUBB3 F, PGP F): 1
PGP Positive (IHC) Bene. Level (IHC positive: TLE3 No Data, TUBB3 F, PGP T): 2
PGP Positive (IHC) Bene. Level (IHC positive: TLE3 No Data, TUBB3 No Data, PGP F): 1
PGP Positive (IHC) Bene. Level (IHC positive: TLE3 No Data, TUBB3 No Data, PGP T): 3
PGP Positive (IHC) Bene. Level (IHC positive: TLE3 No Data, TUBB3 T, PGP F): 1
PGP Positive (IHC) Bene. Level (IHC positive: TLE3 No Data, TUBB3 T, PGP T): 3
PGP Positive (IHC) Bene. Level (IHC positive: TLE3 T, TUBB3 F, PGP F): 1
PGP Positive (IHC) Bene. Level (IHC positive: TLE3 T, TUBB3 F, PGP T): 2
PGP Positive (IHC) Bene. Level (IHC positive: TLE3 T, TUBB3 No Data, PGP F): 1
PGP Positive (IHC) Bene. Level (IHC positive: TLE3 T, TUBB3 No Data, PGP T): 2
PGP Positive (IHC) Bene. Level (IHC positive: TLE3 T, TUBB3 T, PGP F): 1
PGP Positive (IHC) Bene. Level (IHC positive: TLE3 T, TUBB3 T, PGP T): 2
PGP Positive (IHC) Evid. Level (taxanes rule, Ref. No. 28): 3
SMILES: CC(=O)O[C@H]1C(=O)[C@@]2(C)[C@H]([C@H](OC(=O)c3ccccc3)[C@]3(O)C[C@H](OC(=O)[C@H](O)[C@@H](NC(=O)c4ccccc4)c4ccccc4)C(C)=C1C3(C)C)[C@]1(OC(C)=O)CO[C@@H]1C[C@@H]2O [paclitaxel]

Evid. Level, ER Positive (IHC) (ER Positive (IHC)=F): 1
Bene. Level, ER Positive (IHC) (ER Positive (IHC)=T): 1
Evid. Level, ER Positive (IHC) (ER Positive (IHC)=T): 1
SMILES: CC/C(=C(\c1ccccc1)c1ccc(OCCN(C)C)cc1)c1ccccc1 [tamoxifen]

SMILES: CO[C@H]1C[C@@H]2CC[C@@H](C)[C@@](O)(O2)C(=O)C(=O)N2CCCC[C@H]2C(=O)O[C@H]([C@H](C)C[C@@H]2CC[C@@H](OC(=O)C(C)(CO)CO)[C@H](OC)C2)CC(=O)[C@H](C)/C=C(\C)[C@@H](O)[C@@H](OC)C(=O)[C@H](C)C[C@H](C)/C=C/C=C/C=C/1C [temsirolimus]
benefit by PIK3CA status (PIK3CA exon 20 mutations): associated with benefit from mTOR inhibitors (everolimus, temsirolimus). Evidence

SMILES: CC[C@@]1(O)C(=O)OCc2c1cc1n(c2=O)Cc2cc3c(CN(C)C)c(O)ccc3nc2-1 [topotecan]
response by TOPOI expression: DNA molecule. Expression of TOPOI has been associated with response to TOPOI

Evid. Level, ER Positive (IHC) (ER Positive (IHC)=F): 1
Bene. Level, ER Positive (IHC) (ER Positive (IHC)=T): 1
Evid. Level, ER Positive (IHC) (ER Positive (IHC)=T): 1
SMILES: CN(C)CCOc1ccc(/C(=C(/CCCl)c2ccccc2)c2ccccc2)cc1 [toremifene]

SMILES: CCCS(=O)(=O)Nc1ccc(F)c(C(=O)c2c[nH]c3ncc(-c4ccc(Cl)cc4)cc23)c1F [vemurafenib]
tumors that develop in treated patients (patients treated with BRAF inhibitor, likely paradoxical activation of the MAPK pathway): cutaneous squamous cell carcinomas and keratoacanthomas that develop in patients treated

SMILES: CCC1=C[C@@H]2CN(C1)Cc1c([nH]c3ccccc13)[C@@](C(=O)OC)(c1cc3c(cc1OC)N(C)[C@H]1[C@@](O)(C(=O)OC)[C@H](OC(C)=O)[C@]4(CC)C=CCN5CC[C@]31[C@@H]54)C2 [vinorelbine]
resistance by loss of FBXW7 (loss of FBXW7, tubulin-targeting agents): loss of FBXW7 confers resistance to tubulin-targeting agents like paclitaxel or vinorelbine,
